Data set [1] can be described thus: Particle size of API and excipients. Format: physicochemical. The settings on record: API/excipient powder. The source says:
Microscopy images showing the morphology of IBU and DIZ particles are shown in FIGS. 29A and 29B, respectively. IBU and DIZ both are fine particles with a d50 of 21.87 μm and 23.12 μm, respectively.

Data set [2] in a line: Bulk and flow properties of powders (FT4 Powder Rheometer). It counts as physicochemical. The settings on record: API/excipient powder.

Consider `OC[C@H]1O[C@@H](O[C@H]2[C@H](O)[C@@H](O)C(O)O[C@@H]2CO)[C@H](O)[C@@H](O)[C@H]1O` (some centres unmarked) [Anhydrous lactose], for which, in data set [1], the “Particle size d10” value came to 26.03 μm, the “Particle size d50” value was 188.75 μm and the “Particle size d90” value amounted to 425.90 μm. For the same molecule, in data set [2], the Bulk density is 0.74 g/mL, the Compressibility came out at 13.10% and the “Flow function coefficient (ffc)” value worked out at 5.69.

As to `CN1C(=O)CN=C(c2ccccc2)c2cc(Cl)ccc21` [Diazepam (DIZ), Diazepam, reference compound], in data set [1], the “Particle size d10” value was found to be 5.74 μm, the “Particle size d50” value is listed as 23.12 μm and the “Particle size d90” value is reported as 110.75 μm. In addition, in data set [2], the Compressibility was found to be 32.73% and the “Flow function coefficient (ffc)” value was 2.78.

With `CC(C)Cc1ccc(C(C)C(=O)O)cc1` (centres unmarked) [Ibuprofen (IBU), Ibuprofen, reference compound], in data set [1], the “Particle size d10” value is 4.86 μm, the “Particle size d50” value is listed as 21.87 μm and the “Particle size d90” value is 75.31 μm. Also, in data set [2], the Bulk density was 0.53 g/mL, the Compressibility was found to be 25.07% and the “Flow function coefficient (ffc)” value is listed as 3.87.

Consider Magnesium stearate, for which, in data set [1], the “Particle size d10” value was found to be 2.76 μm, the “Particle size d50” value stood at 6.86 μm and the “Particle size d90” value was 15.10 μm. In data set [2], the Bulk density is 0.31 g/mL, the Compressibility was 38.97% and the “Flow function coefficient (ffc)” value came to 5.18.

These data come from patent publication US11020352B2, “Systems and methods for the fabrication of tablets, including pharmaceutical tablets” (Massachusetts Institute of Technology, priority 2017, dated 2021).
